From ChEMBL document CHEMBL4665914, “Identification of BRaf-Sparing Amino-Thienopyrimidines with Potent IRE1α Inhibitory Activity” (ACS Med Chem Lett, 2020)
pIC50, pKi: −log10 of the molar value.

Assays:
[1] = biological target: Serine/threonine-protein kinase B-raf (Homo sapiens, UniProt P15056, V600E)
[2] = biological target: T1, Serine/threonine-protein kinase/endoribonuclease IRE1 (Homo sapiens, UniProt O75460); test: Competitive inhibition of IRE1alpha LKR domain (Q470 to L997 residues) (unknown origin) expressed in Sf9 insect cells using mini-XBP-1 stem-loop RNA as substrate and measured every 2 mins for 50 mins by FRET assay
[3] = biological target: T1, Serine/threonine-protein kinase/endoribonuclease IRE1; test: Inhibition of IRE1alpha (unknown origin) assessed as XBP-1 slicing luciferase activity incubated for 1 hr followed by stimulation with thapsigargin measured after 5 hrs by luciferase reporter gene assay
[4] = biological target: T2, hERG (KCNH2) (Homo sapiens, UniProt Q12809); test: Inhibition of human ERG at 10 uM relative to control
[5] = biological target: T2, hERG (KCNH2); test: Inhibition of human ERG at 1 uM relative to control

Serine/threonine-protein kinase B-raf, sequence (P15056 2-766 V600E limits assumed): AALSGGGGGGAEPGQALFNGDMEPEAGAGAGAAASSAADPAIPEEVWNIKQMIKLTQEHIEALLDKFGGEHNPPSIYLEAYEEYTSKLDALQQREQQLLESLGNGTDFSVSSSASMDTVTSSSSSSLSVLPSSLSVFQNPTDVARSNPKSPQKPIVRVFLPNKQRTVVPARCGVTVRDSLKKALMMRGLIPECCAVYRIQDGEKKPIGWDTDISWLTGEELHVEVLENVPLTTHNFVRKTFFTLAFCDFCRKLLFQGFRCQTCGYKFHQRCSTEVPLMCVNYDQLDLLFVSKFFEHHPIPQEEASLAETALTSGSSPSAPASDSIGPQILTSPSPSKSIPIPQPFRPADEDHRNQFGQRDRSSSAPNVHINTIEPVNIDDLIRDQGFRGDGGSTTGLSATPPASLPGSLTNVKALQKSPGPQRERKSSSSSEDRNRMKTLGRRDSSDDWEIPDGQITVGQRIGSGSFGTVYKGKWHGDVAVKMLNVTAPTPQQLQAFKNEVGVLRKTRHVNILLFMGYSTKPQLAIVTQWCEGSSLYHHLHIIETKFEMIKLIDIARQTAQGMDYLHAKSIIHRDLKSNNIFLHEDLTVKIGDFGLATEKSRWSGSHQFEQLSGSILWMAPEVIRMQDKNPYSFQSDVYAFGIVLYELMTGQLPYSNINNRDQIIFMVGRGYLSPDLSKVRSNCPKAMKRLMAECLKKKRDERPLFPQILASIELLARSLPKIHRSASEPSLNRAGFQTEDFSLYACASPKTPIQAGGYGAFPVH
T1 sequence (O75460 whole entry, the tested form may be a part): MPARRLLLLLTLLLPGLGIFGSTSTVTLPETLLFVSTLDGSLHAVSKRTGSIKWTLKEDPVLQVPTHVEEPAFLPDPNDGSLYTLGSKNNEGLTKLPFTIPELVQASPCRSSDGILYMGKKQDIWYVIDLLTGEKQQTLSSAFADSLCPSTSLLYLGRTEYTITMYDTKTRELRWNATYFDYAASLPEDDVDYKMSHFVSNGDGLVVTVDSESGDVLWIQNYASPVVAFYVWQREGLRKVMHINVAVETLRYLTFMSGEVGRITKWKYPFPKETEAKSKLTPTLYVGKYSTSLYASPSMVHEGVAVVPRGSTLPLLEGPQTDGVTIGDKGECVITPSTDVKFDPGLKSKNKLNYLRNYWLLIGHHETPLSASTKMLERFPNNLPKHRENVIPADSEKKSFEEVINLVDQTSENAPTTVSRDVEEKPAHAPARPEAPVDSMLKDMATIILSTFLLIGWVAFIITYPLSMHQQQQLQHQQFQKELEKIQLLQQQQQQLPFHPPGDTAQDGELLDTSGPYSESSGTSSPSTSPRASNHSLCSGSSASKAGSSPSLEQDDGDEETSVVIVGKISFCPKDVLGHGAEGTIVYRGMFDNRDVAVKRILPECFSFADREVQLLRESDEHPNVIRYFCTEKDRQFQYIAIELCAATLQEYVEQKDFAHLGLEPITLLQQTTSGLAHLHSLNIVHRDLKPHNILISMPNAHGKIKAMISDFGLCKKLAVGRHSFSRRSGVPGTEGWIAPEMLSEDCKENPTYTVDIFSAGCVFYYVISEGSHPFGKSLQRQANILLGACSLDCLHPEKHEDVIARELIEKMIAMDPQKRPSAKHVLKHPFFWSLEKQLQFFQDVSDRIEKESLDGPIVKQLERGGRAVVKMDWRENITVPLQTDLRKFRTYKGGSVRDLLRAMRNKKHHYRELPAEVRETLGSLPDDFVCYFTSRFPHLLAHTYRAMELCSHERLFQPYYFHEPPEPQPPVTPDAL
T2 sequence (Q12809 whole entry): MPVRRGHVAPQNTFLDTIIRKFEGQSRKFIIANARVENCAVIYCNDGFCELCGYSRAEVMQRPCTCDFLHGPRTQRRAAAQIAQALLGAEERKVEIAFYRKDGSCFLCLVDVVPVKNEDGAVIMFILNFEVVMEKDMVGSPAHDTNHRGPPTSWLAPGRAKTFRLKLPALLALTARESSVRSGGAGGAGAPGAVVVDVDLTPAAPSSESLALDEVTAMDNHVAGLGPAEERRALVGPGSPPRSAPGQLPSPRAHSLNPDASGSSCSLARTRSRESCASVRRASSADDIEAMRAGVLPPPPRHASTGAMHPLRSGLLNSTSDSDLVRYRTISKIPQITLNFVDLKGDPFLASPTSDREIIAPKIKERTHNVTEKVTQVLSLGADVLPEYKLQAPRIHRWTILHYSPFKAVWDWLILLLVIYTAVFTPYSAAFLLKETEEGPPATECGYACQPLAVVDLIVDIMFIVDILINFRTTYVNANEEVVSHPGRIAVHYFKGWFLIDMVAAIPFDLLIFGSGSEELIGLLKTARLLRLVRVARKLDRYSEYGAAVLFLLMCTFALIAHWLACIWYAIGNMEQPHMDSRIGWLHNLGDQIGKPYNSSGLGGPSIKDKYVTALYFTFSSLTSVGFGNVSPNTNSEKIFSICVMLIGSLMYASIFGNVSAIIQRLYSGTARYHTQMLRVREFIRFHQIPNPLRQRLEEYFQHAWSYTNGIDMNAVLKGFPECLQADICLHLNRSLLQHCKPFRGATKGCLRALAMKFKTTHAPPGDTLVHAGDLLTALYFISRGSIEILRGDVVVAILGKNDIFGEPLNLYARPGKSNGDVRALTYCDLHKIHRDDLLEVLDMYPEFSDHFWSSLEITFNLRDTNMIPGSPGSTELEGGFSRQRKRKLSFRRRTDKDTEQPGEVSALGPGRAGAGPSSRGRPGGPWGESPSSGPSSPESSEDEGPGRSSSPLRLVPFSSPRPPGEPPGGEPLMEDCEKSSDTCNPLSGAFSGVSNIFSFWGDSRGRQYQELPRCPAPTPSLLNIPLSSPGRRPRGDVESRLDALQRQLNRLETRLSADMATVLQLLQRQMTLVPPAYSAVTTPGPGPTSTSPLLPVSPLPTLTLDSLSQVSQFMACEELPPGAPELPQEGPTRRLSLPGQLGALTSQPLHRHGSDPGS

Compound | pKi [1] | pIC50 [2] | pIC50 [3] | inhibition at 10 µM [4] | inhibition at 1 µM [5]
Cc1nn(C)cc1-c1cc(C(=O)Nc2c(Cl)ccc(NS(=O)(=O)c3ccccc3F)c2F)c2ncnc(N)c2c1 | ≥ 10.10 | 7.40 | 7.36 |  | 
Nc1ncnc2c(C(=O)Nc3c(Cl)ccc(NS(=O)(=O)c4cc(F)ccc4F)c3F)csc12 | ≥ 10.10 | 7.17 | 5.28 |  | 
Cc1cc(C(=O)Nc2c(Cl)ccc(NS(=O)(=O)c3cc(F)ccc3F)c2F)c2ncnc(N[C@H]3CC[C@H](N)CC3)c2c1 | 6.47 | 6.15 | 4.72 |  | 
Cc1cc(C(=O)Nc2c(Cl)ccc(NS(=O)(=O)c3cc(F)ccc3F)c2F)c2ncnc(N[C@@H]3CCCNC3)c2c1 | 7.15 | 5.46 | 4.72 |  | 
Cc1cc(C(=O)Nc2c(Cl)ccc(NS(=O)(=O)c3cc(F)ccc3F)c2F)c2ncnc(N[C@H]3CCCNC3)c2c1 |  | 6.17 | 5.00 |  | 
Nc1ncnc2c(C(=O)Nc3c(Cl)ccc(NS(=O)(=O)c4cc(F)ccc4F)c3F)cc(-c3cccnc3)cc12 | ≥ 10.10 | 7.33 | 5.31 |  | 
N[C@H]1CC[C@H](Nc2ncnc3c(C(=O)Nc4c(Cl)ccc(NS(=O)(=O)c5cc(F)ccc5F)c4F)csc23)CC1 | 8.85 | 7.62 | 6.49 |  | 
N[C@H]1CC[C@H](Nc2ncnc3c(C(=O)Nc4c(Cl)ccc(NS(=O)(=O)c5ccccc5Cl)c4F)csc23)CC1 |  | 7.66 | 6.92 | 6.4% | 1.1%
N[C@H]1CC[C@H](Nc2ncnc3c(C(=O)Nc4c(Cl)ccc(NS(=O)(=O)Cc5ccccc5)c4F)csc23)CC1 | 7.26 | 7.52 | 6.41 |  | 
Cc1nn(C)cc1-c1cc(C(=O)Nc2c(Cl)ccc(NS(=O)(=O)c3ccccc3Cl)c2F)c2ncnc(N)c2c1 | 9.60 | 7.19 | 7.32 |  | 
Cc1cc(NS(=O)(=O)c2ccccc2Cl)c2ccccc2c1Oc1ncccc1-c1ccnc(N[C@H]2CC[C@H](N)CC2)n1 |  | 8.38 | 7.24 |  | 
Nc1ncnc2c(C(=O)Nc3c(Cl)ccc(NS(=O)(=O)N4CCCC4)c3F)cccc12 | 8.64 | 6.70 | 5.25 |  | 
Cc1cc(C(=O)Nc2c(Cl)ccc(NS(=O)(=O)c3cc(F)ccc3F)c2F)c2ncnc(N)c2c1 | ≥ 10.10 | 7.51 | 5.96 |  | 
Cc1cc(C(=O)Nc2c(Cl)ccc(NS(=O)(=O)c3cc(F)ccc3F)c2F)c2ncnc(NCCN)c2c1 | 8.28 | 6.04 | 4.51 |  | 
